Laboratory results reported in ChEMBL document CHEMBL1201862, “PubChem BioAssay data set” (2004).
Values joined by “and” are separate entries in the source; they are usually repeats but may differ in a detail not shown here. Identical values can stand only once. Active and inactive are the calls of the source.

Experiments:
[1] = tested on: Streptococcus sp. 'group A'; assay: growth inhibition of control SK(-) GAS strain, dose response, counter-screen for streptokinase expression inhibitor project, luminescence, kanamycin, BacTiterGlo, confirmation (AID 1900); assay type: functional, organism-based
[2] = target: T1, Streptokinase A (Streptococcus pyogenes serotype M1, UniProt P10520); assay: S. pyogenes streptokinase expression inhibitors, potency, dose response, plasminogen activation absorbance, OD405 (AID 1914); assay type: functional, Streptococcus pyogenes M1 GAS;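 further: secreted streptokinase activity via plasminogen activation per viability signal from cell pellet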
T1 sequence (P10520 whole entry): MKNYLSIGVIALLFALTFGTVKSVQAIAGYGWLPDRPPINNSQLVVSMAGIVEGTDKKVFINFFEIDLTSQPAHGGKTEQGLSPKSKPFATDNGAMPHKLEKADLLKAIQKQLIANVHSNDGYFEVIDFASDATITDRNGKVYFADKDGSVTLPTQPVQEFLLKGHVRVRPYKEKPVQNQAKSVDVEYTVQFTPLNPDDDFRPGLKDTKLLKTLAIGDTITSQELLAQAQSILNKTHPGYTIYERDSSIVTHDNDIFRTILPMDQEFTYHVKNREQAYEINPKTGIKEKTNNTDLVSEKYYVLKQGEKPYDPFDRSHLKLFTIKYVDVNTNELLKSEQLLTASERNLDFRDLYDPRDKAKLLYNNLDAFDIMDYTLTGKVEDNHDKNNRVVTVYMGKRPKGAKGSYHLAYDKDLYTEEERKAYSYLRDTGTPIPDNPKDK

[3] = tested on: Streptococcus; assay: Group A Streptococcus viability loss, dose response, counter-screen for streptokinase expression inhibitor project, luminescence, BacTiterGlo (AID 1915); assay type: functional, organism-based;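 further: potency for reduction of bacterial viability or growth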
[4] = target: DNA damage-inducible transcript 3 protein (Mus musculus, UniProt P35639); assay type: functional, Cricetulus griseus
[5] = tested on: Vero; assay: cells; assay type: functional; settings: Chlorocebus sabaeus
[6] = cytotoxicity in HEK-293T cells, dose response, cytotoxicity control for BCR NF-kB inhibitor project, luminescence, B-cell screen hits (AID 489021); assay type: functional, cell-based;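 further: HEK-293T cells carrying an NF-kB luciferase reporter; cells exposed to compound for about 14 hours before viability readout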
[7] = HEp-2 cell cytotoxicity, dose response, cytotoxicity control for RSV inhibitor project, HTS (AID 2410); assay type: functional; settings: human respiratory syncytial virus
[8] = target: Lysosomal acid glucosylceramidase (Homo sapiens, UniProt P04062); assay: Dose response cell-based high throughput screening assay to identify enhancers of beta-glucosidase activity. [Related pubchem assays: 784 ]; assay type: functional
[9] = target: T2, Apoptotic protease-activating factor 1 (Homo sapiens, UniProt O14727); assay type: functional
T2 sequence (O14727 whole entry): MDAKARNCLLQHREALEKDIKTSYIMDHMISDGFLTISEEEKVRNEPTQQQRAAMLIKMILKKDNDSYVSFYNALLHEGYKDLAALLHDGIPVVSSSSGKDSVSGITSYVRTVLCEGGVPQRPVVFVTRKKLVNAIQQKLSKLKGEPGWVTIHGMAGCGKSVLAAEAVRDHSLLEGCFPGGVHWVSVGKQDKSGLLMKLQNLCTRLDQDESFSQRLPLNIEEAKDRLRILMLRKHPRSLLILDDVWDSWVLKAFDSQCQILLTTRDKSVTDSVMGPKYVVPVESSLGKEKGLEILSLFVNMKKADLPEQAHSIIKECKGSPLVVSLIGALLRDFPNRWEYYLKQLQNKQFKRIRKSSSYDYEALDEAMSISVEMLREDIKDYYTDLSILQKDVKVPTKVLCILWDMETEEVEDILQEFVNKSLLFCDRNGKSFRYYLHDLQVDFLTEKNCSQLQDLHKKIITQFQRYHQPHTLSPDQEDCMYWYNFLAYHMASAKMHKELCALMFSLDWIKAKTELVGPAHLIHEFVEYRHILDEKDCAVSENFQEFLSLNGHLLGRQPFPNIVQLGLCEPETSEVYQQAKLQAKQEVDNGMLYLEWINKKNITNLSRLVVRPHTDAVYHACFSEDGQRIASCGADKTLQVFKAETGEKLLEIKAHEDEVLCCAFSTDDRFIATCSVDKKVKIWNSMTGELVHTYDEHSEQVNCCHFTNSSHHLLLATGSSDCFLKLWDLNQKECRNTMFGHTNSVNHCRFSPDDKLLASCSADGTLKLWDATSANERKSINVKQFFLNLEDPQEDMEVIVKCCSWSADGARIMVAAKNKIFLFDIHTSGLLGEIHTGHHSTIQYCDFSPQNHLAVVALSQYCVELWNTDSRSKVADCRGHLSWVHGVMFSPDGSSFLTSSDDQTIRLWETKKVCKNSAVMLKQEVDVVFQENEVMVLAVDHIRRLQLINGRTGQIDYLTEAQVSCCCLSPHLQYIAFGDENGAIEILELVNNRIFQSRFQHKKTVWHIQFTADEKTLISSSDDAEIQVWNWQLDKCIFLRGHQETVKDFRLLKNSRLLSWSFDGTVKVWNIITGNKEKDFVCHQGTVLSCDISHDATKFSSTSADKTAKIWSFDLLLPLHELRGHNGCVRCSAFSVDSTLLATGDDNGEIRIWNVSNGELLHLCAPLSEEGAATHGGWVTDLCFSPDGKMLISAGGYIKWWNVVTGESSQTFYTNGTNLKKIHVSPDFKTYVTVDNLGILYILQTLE

[10] = target: RNA-editing ligase 1, mitochondrial (Trypanosoma brucei brucei, UniProt P86926); assay: TbREL1 ligase inhibitors, dose response, biochemical, fluorescence, Trypanosoma brucei (AID 1117295); assay type: functional
[11] = target: Troponin, cardiac muscle (Homo sapiens, UniProt P19429+P45379+P63316); assay: Fluorescence-based biochemical high throughput dose response assay for activators of the calcium sensitivity of cardiac Regulated Thin Filaments (RTF). [Related pubchem assays (depositor defined):AID493008, AID493018, AID504382, AID504383]; assay type: protein-complex assay
[12] = target: T3, RNA-binding protein pos-1 (Caenorhabditis elegans, UniProt G5EF15); assay: inhibitors of POS-1/mex-3 RNA binding, dose response, biochemical, fluorescence polarization (AID 1964);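 further: purified POS-1 fused to maltose binding protein made in E. coli; potency of compounds blocking POS-1 binding to fluorescent RNA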
T3 sequence (G5EF15 whole entry): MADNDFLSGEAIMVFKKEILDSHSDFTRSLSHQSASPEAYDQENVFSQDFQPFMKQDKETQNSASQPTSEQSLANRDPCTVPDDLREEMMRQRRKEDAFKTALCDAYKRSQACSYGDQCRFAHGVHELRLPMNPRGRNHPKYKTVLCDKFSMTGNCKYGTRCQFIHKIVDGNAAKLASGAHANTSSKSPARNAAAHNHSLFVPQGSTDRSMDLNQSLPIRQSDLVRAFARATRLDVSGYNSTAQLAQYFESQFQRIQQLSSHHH

[13] = target: T4, Runt-related transcription factor 1/Core-binding factor subunit beta (Homo sapiens, UniProt Q01196+Q13951); assay: inhibitors of RUNX1 Runt–CBFb-SMMHC binding, primary screen, biochemical, FRET, Cerulean-Runt, Venus-CBFb-SMMHC, uHTS (AID 1434); assay type: protein assay;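 further: partner is the CBFb-SMMHC leukemia fusion protein rather than wild-type CBFb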
[14] = target: T5, Aspartyl aminopeptidase (Plasmodium falciparum 3D7, UniProt Q8I2J3)
T5 sequence (Q8I2J3 whole entry): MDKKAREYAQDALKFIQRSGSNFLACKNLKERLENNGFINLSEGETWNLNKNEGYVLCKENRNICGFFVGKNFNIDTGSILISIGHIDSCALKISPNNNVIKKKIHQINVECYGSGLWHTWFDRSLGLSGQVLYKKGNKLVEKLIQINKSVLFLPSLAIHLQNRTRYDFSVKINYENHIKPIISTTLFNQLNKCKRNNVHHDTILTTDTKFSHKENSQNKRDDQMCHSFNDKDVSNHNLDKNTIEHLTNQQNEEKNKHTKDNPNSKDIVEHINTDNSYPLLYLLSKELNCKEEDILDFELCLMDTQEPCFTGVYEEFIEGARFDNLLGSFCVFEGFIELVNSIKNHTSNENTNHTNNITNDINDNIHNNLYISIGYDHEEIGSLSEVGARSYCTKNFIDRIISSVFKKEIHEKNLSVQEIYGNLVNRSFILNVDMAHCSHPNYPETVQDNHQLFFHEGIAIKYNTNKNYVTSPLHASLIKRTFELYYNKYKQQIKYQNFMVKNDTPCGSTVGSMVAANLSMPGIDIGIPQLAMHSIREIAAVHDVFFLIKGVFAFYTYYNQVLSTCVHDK

[15] = target: Procathepsin L (Homo sapiens, UniProt P07711)
[16] = target: T6, Zinc finger protein mex-5 (Caenorhabditis elegans, UniProt Q9XUB2); assay: MEX-5/TCR-2 RNA interaction inhibitors, dose response, biochemical, C. elegans, fluorescence polarization (AID 1960)
T6 sequence (Q9XUB2 whole entry): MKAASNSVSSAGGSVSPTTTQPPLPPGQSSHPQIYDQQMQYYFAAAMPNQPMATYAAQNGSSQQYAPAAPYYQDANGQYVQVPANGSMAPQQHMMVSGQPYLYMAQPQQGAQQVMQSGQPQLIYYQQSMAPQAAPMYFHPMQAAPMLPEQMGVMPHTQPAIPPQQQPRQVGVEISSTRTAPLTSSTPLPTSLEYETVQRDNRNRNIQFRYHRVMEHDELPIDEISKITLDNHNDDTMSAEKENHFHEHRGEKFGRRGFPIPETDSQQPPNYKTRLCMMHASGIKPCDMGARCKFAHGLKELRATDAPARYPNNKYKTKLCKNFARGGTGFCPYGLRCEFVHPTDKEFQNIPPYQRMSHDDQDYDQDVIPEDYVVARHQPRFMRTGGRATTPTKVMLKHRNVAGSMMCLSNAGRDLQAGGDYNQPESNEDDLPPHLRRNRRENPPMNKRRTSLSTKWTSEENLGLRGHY

[17] = target: Large T antigen (Simian virus 40, UniProt P03070); assay type: functional, Betapolyomavirus macacae;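 further: Confirmatory-stage PubChem screen for compounds that inhibit SV40 T antigen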
[18] = target: T4, Runt-related transcription factor 1/Core-binding factor subunit beta; assay: inhibitors of RUNX1 Runt–CBFb-SMMHC binding, biochemical, TR-FRET (AID 1438); assay type: protein assay
[19] = growth suppression of PTEN-null colon cells, dose response, cell-based, HCT116 PTEN knockout (AID 1047); assay type: functional;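 further: HCT116 colon tumor cells with PTEN knocked out; cells exposed to compound for 60 hours before readout; potency for loss of cell viability measured by luminescence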
[20] = growth suppression of beta-catenin-knockout colon cells, dose response, cell-based, HCT116, human colon tumor (AID 1045); assay type: functional;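 further: HCT116 colon tumor cells with beta catenin knocked out; cells exposed to compound for 60 hours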
[21] = target: FAD-linked sulfhydryl oxidase ALR (Homo sapiens, UniProt P55789); assay: inhibitors of human ALR sulfhydryl oxidase, dose response, biochemical, H2O2 detection, luminescence, cherry-pick (AID 493248)
[22] = cytotoxicity in HPDE-C7 cells, cell-based, fluorescence, HTS (AID 430); assay type: functional; settings: Homo sapiens
[23] = cytotoxicity in KRAS-transformed pancreatic duct cells, primary screen, cell-based, fluorescence, HTS (AID 431); assay type: functional; settings: Homo sapiens;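 further: cell line used: HPDE-C7K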
[24] = Luminescence Cell-Based Dose Retest to Confirm Inhibitors of Cancer Stem Cells. [Related pubchem assays (depositor defined):AID2717, AID2721]; assay type: functional; settings: Homo sapiens
[25] = target: X-box-binding protein 1 (Homo sapiens, UniProt P17861); assay type: functional, Cricetulus griseus;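 further: confirmatory dose-response counter-screen serving a CHOP assay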
[26] = target: T7, Cytochrome P450 1A2 (Homo sapiens, UniProt P05177);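 further: PubChem cytochrome P450 panel assay, CYP1A2 panel member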
T7 sequence (P05177 whole entry): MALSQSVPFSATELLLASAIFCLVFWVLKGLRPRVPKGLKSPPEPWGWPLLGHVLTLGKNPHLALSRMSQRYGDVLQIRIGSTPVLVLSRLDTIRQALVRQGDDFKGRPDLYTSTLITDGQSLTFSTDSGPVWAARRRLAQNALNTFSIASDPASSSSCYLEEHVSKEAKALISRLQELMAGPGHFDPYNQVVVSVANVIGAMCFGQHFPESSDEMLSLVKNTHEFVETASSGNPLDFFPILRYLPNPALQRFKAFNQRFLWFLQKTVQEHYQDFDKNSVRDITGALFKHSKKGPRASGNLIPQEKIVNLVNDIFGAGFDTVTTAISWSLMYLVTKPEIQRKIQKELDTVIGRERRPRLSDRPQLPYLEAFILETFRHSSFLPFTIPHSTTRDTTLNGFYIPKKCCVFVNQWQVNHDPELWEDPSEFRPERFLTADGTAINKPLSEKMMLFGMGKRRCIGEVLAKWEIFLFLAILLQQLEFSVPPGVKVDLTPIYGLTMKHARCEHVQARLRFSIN

[27] = target: Cytochrome P450 3A4 (Homo sapiens, UniProt P08684);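 further: CYP3A4 tested as one member of a cytochrome P450 panel screen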

SMILES: O=C(CN1c2ccccc2Sc2ccccc21)NNC(=O)Nc1cccc(Cl)c1
- EC50 [1]: 4.41 µM (active)
- EC50 [2]: > 150 µM (not active)
- EC50 [3]: 18.5 µM (active)
- Absolute IC50 (CHOP) [4]: 10 µM
- CC50 [5]: 19 µM (active)

SMILES: C(=N\Nc1nc(Nc2ccccc2)nc(Nc2ccccc2)n1)/c1cccnc1
- IC50 [6]: 41.3 µM (inactive)

SMILES: CCC(C)NC(=O)c1c(N)n(CC2CCCO2)c2nc3ccccc3nc12 (centres undefined)
- CC50 [7]: 20.3 µM (active)
- EC50 [8]: > 50 µM (not active)
- Absolute IC50 (CHOP) [4]: 10 µM
- IC50 [9]: 18.8 µM (active)
- IC50 [10]: 27.7 µM (inactive)

SMILES: Fc1ccc(-c2n[nH]cc2CN(CC2CCC2)CC2CCCO2)c(F)c1 (centres undefined)
- EC50 [11]: > 71.5 µM (inactive)

SMILES: Oc1ccc(O)c(-c2cnns2)c1
- EC50 [12]: > 300 µM (not active)
- IC50 [13]: 33.8 µM (active)
- IC50 [14]: 1.89 µM (active)
- IC50 [15]: > 59.6 µM (not active)
- EC50 [16]: 6.91 µM (active)
- IC50 [17]: 10 µM (active)
- IC50 [18]: 20.5 µM (active)
- EC50 [19]: 47.1 µM (active)
- EC50 [20]: 365 µM (active)
- AC50 [21]: 4.57 µM (active)

SMILES: O=c1[nH]c2ccccc2n1C1CCN(CCCC(c2ccc(F)cc2)c2ccc(F)cc2)CC1 [PIMOZIDE]
- EC50 [22]: 13.6 µM (active)
- EC50 [23]: 18.9 µM (active)
- EC50 [19]: 6.38 µM (active)
- EC50 [20]: 7.54 µM (active)
- AC50 [24]: 3.79 µM (active)
- Absolute IC50 (XBP1) [25]: < 10 µM
- AC50 [26]: 31.6 µM (inconclusive) and 15.8 µM (inconclusive)
- AC50 [27]: inconclusive

SMILES: Cc1cc(=O)oc2c3c4c(cc12)OCCN4CCC3
- IC50 [13]: < 0.195 µM (inactive)
- IC50 [18]: > 100 µM (inactive)

SMILES: O=C(Nc1ccc(Cl)cn1)C1COc2ccccc2O1 (centres undefined)
- EC50 [11]: > 71.5 µM (inactive)

SMILES: CCOc1ccc(-c2nnc(SCC(=O)NC3CC3)o2)cc1
- IC50 [6]: > 80 µM (inactive)
